Holding throughout (type): biochemical
Common to all, as to conditions: thiopeptolide substrate Ac-Pro-Leu-Gly-thioester-Leu-Leu-Gly-OEt

Assay [1] has as its target T1, MMP-3CD (stromelysin-1 catalytic domain) (Homo sapiens, UniProt P08254).
T1 construct: Experiments were carried out with the catalytic domains of the proteinases
The assay is described as follows: MMP-3CD inhibition, thiopeptolide substrate. How it is done:
(§1) Experiments were carried out with the catalytic domains of the proteinases. […] IC50 values were determined using a thiopeptolide substrate, Ac-Pro-Leu-Gly-thioester-Leu-Leu-Gly-OEt (Ye Q.-Z., Johnson L. L., Hupe D. J., and Baragi V., “Purification and Characterization of the Human Stromelysin Catalytic Domain Expressed in Escherichia coli”, Biochemistry, 1992;31:11231-11235).

In assay [2] the target is MMP-2CD (gelatinase A catalytic domain) (Homo sapiens, UniProt P08253). Nature of the assay: MMP-2CD inhibition, thiopeptolide substrate. How it is done: as §1
Assay [3] deals with T2, MMP-13CD (collagenase-3 catalytic domain) (Homo sapiens, UniProt P45452).
T2 construct: Experiments were carried out with the catalytic domains of the proteinases
Nature of the assay: MMP-13CD inhibition, thiopeptolide substrate. On the procedure:
as §1

T1 sequence (P08254 100-272 limits assumed): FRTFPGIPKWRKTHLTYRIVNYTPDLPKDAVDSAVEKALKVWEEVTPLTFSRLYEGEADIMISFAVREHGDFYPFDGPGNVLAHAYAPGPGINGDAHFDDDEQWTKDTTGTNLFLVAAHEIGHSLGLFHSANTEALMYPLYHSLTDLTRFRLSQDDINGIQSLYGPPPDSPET

As a reminder, the IC50 is the point on the concentration scale where inhibition reaches its midpoint. In the case of `O=C(O)CCC(=O)c1ccc(-c2ccc(Cl)s2)cc1` [Example 2, 4-[4-(5-Chloro-thiophen-2-yl)-phenyl]-4-oxo-butyric Acid], the values for the half-inhibitory concentration (IC50) in assay [1], in assay [2] and in assay [3] were 298 nM, 63.9 nM and 1100 nM, respectively.
As to `O=C(O)CCC(=NO)c1ccc(-c2ccc(Cl)s2)cc1` [Example 3], the IC50 is 105 nM in assay [1], 14 nM in assay [2] and 120 nM in assay [3].
For the molecule `O=C(O)CCC(=NO)c1ccc(-n2cccn2)cc1` [Example 1, 4-Hydroxyimino-4-(4-pyrazol-1-yl-phenyl)butyric Acid], the IC50 is 13000 nM in assay [1], 1250 nM in assay [2] and 10600 nM in assay [3].

Source of the values: patent US6399612B1, “Heteroaryl butyric acids and their derivatives as inhibitors of matrix metalloproteinases” (Warner-Lambert Company, priority 1997, dated 2002).
